Measurements from ChEMBL document CHEMBL4011618, “Discovery of Potent, Selective Stem Cell Factor Receptor/Platelet Derived Growth Factor Receptor Alpha (c-KIT/PDGFRα) Dual Inhibitor for the Treatment of Imatinib-Resistant Gastrointestinal Stromal Tumors (GISTs)” (J Med Chem, 2017).
pIC50: −log10 of the molar value.

Key:
[1] = target: T1, Platelet-derived growth factor receptor alpha (Homo sapiens, UniProt P16234); test: Inhibition of PDGFRalpha (unknown origin) using FAM-labeled peptide as substrate preincubated for 10 mins followed by substrate addition in presence of ATP by mobility shift assay
[2] = target: T2, Mast/stem cell growth factor receptor Kit (Homo sapiens, UniProt P10721)
Description: Inhibition of cKIT (unknown origin) using FAM-labeled peptide as substrate preincubated for 10 mins followed by substrate addition in presence of ATP by mobility shift assay

[3] = target: Vascular endothelial growth factor receptor 2 (Homo sapiens, UniProt P35968)
Description: Inhibition of VEGFR2 (unknown origin) using FAM-labeled peptide as substrate preincubated for 10 mins followed by substrate addition in presence of ATP by mobility shift assay

[4] = target: Fibroblast growth factor receptor 1 (Homo sapiens, UniProt P11362); test: Inhibition of FGFR1 (unknown origin) using FAM-labeled peptide as substrate preincubated for 10 mins followed by substrate addition in presence of ATP by mobility shift assay
[5] = test system: Platelet-derived growth factor receptor alpha (Homo sapiens), P16234 [T674I]
Description: Inhibition of TEL-fused PDGFRalpha T674I mutant (unknown origin) expressed in mouse BAF3 cells assessed as cell growth inhibition after 72 hrs by cell titer-glo assay

[6] = target: T1, Platelet-derived growth factor receptor alpha
Description: Inhibition of TEL-fused PDGFRalpha (unknown origin) expressed in mouse BAF3 cells assessed as cell growth inhibition after 72 hrs by cell titer-glo assay

[7] = test system: Mast/stem cell growth factor receptor Kit (Homo sapiens), P10721 [T670I]
Description: Inhibition of TEL-fused cKIT T670I mutant (unknown origin) expressed in mouse BAF3 cells assessed as cell growth inhibition after 72 hrs by cell titer-glo assay

[8] = target: T2, Mast/stem cell growth factor receptor Kit; remark: listed apart in the source
Description: Inhibition of TEL-fused cKIT (unknown origin) expressed in mouse BAF3 cells assessed as cell growth inhibition after 72 hrs by cell titer-glo assay

T2 sequence (P10721 whole entry): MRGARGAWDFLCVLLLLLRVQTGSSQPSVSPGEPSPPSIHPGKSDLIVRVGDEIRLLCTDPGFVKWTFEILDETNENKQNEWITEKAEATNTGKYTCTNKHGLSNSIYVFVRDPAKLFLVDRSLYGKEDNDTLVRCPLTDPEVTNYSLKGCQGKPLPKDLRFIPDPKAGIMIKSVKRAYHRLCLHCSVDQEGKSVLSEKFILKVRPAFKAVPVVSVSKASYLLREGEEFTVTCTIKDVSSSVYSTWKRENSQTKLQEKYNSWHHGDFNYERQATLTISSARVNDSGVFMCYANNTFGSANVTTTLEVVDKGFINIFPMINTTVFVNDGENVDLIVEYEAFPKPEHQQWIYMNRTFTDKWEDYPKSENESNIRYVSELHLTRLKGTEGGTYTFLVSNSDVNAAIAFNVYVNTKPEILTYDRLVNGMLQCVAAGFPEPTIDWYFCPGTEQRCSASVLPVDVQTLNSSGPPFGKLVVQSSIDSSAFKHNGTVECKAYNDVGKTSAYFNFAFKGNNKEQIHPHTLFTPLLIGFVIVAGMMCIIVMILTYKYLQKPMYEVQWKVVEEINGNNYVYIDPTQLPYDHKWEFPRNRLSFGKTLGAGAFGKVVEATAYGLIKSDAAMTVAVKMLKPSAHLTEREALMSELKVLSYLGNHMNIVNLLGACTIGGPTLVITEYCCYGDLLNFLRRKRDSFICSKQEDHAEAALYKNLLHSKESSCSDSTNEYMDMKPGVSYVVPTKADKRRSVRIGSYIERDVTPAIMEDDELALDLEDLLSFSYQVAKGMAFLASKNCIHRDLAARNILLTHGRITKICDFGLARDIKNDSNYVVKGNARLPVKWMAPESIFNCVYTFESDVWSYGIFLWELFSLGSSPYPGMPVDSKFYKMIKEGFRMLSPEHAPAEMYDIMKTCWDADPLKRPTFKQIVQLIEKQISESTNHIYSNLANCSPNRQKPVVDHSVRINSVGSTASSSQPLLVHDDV
Sequence of Platelet-derived growth factor receptor alpha (Homo sapiens), P16234 [T674I] (P16234 whole entry T674I): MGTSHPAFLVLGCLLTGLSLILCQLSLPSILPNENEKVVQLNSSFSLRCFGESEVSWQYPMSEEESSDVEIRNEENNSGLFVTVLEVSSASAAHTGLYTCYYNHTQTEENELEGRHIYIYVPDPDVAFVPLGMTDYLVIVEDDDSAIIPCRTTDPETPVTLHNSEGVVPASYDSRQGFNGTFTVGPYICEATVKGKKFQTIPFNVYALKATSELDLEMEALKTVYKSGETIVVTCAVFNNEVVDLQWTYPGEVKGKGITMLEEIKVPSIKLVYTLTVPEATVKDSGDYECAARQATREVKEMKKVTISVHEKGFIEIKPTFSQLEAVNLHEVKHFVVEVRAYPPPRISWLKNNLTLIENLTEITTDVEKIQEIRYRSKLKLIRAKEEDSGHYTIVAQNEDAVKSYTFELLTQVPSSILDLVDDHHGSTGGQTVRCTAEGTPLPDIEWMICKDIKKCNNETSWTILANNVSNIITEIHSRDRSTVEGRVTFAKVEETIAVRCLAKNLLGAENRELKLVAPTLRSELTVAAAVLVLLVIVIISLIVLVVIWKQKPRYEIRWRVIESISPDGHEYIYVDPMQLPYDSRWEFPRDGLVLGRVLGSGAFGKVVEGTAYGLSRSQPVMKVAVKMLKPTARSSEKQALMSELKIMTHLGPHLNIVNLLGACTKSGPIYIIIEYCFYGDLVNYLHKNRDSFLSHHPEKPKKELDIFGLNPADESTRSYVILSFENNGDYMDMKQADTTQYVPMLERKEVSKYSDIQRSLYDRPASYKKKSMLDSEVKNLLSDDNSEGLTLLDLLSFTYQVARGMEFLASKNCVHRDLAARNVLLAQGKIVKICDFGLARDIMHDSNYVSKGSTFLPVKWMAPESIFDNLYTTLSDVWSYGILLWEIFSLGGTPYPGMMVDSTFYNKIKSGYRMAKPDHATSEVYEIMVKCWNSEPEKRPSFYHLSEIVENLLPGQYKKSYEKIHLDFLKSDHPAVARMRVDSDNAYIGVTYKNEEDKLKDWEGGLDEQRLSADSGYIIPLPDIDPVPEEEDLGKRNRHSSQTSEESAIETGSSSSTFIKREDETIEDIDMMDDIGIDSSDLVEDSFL
Sequence of Mast/stem cell growth factor receptor Kit (Homo sapiens), P10721 [T670I] (P10721 whole entry T670I): as the sequence (P10721 whole entry) above, with T670I counted along it
Sequence of Vascular endothelial growth factor receptor 2 (P35968 whole entry): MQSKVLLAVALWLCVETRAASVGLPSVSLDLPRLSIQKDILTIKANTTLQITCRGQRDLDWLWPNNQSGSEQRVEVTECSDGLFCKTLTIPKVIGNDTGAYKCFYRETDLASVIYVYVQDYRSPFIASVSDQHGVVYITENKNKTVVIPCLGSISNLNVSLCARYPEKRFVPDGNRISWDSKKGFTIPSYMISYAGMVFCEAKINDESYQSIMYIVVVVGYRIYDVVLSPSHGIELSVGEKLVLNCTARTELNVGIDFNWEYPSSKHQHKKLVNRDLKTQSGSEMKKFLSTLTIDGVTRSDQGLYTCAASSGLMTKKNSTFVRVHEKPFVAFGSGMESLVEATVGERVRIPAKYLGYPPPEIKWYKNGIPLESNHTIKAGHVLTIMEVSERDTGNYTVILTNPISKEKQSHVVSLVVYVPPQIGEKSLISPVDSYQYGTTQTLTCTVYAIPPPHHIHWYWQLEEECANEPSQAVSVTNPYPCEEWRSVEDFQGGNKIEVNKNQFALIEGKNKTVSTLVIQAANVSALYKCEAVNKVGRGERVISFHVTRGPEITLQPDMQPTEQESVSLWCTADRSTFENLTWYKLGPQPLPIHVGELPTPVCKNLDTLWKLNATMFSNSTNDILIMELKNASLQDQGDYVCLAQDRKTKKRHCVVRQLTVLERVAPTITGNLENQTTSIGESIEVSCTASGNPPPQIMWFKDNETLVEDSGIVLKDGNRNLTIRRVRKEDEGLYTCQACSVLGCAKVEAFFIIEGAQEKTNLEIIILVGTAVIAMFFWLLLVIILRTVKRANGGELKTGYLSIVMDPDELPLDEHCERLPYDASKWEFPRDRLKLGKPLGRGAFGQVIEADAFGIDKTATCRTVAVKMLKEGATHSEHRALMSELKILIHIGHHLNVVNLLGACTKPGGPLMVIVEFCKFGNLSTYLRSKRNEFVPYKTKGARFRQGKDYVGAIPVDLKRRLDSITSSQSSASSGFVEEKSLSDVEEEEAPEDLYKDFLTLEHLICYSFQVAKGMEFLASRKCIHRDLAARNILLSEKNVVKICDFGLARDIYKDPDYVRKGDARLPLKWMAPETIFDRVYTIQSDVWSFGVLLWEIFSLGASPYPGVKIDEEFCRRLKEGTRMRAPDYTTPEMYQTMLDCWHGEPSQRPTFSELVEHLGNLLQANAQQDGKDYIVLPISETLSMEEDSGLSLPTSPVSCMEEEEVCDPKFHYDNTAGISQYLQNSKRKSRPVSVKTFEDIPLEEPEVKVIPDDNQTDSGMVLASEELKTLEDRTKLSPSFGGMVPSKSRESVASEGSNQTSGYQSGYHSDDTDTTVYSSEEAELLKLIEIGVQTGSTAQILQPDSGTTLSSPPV
T1 sequence (P16234 whole entry): as the sequence (P16234 whole entry T674I) above, with I674T counted along it
Sequence of Fibroblast growth factor receptor 1 (P11362 whole entry): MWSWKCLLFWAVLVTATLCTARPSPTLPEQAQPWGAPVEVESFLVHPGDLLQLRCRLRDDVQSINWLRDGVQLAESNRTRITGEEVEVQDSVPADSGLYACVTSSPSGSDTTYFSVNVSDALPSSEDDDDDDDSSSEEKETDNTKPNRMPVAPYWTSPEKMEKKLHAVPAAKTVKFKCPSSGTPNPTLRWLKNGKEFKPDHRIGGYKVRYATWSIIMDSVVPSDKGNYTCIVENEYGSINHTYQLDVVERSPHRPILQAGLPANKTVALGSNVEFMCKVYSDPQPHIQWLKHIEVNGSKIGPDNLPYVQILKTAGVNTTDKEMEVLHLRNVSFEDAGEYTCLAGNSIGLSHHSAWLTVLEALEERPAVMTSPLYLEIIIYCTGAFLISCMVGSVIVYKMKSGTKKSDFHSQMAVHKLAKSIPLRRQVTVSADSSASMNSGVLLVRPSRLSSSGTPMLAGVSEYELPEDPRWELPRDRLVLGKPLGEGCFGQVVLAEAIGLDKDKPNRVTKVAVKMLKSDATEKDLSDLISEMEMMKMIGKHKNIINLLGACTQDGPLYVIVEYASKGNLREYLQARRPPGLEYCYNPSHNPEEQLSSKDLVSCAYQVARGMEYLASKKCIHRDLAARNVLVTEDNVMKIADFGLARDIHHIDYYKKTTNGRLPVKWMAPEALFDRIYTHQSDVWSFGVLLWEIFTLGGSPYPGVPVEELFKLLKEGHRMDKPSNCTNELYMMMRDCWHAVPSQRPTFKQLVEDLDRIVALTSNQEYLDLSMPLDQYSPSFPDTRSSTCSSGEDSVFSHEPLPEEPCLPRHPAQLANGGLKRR

Row | Compound | pIC50 [1] | pIC50 [2] | pIC50 [3] | pIC50 [4] | GI50 [5] [µM] | GI50 [6] [nM] | GI50 [7] [nM] | GI50 [8] [µM]
1 | CCCCNC(=O)Nc1ccc(-c2ccnc3[nH]nc(C)c23)cc1 | 4.36 | 4.69 | < 4.30 | – | – | – | – | –
2 | CCN(CC)c1ccc(NC(=O)Nc2ccc(-c3ccnc4[nH]nc(C)c34)cc2)cc1 | 6.75 | 7.92 | 5.27 | – | – | – | – | –
3 | Cc1n[nH]c2nccc(-c3ccc(NC(=O)NC4CCCC4)cc3)c12 | 6.24 | 6.84 | 5.21 | – | > 10 | 13.3 | > 10000 | > 10
4 | CCc1cccc(NC(=O)Nc2ccc(-c3ccnc4[nH]nc(CO)c34)cc2)c1 | 7.49 | 8.43 | 5.47 | – | – | – | – | –
5 | Cc1n[nH]c2nccc(-c3ccc(NC(=O)Nc4cccc(CN(C)C)c4)cc3)c12 | 5.34 | 4.66 | 4.80 | – | – | – | – | –
6 | Cc1n[nH]c2nccc(-c3ccc(NC(=O)Nc4cccc(N(C)C)c4)cc3)c12 | 7.08 | 8.59 | 5.16 | – | – | – | – | –
7 | Cc1cccc(NC(=O)Nc2ccc(-c3ccnc4[nH]nc(C(F)(F)F)c34)cc2)c1 | < 4.30 | < 4.30 | < 4.30 | – | > 10 | 465 | > 10000 | > 10
8 | CCc1cccc(NC(=O)Nc2ccc(-c3ccnc4[nH]nc(C(F)(F)F)c34)cc2)c1 | < 5.30 | 5.17 | < 4.30 | – | – | – | – | –
9 | CCCNC(=O)Nc1ccc(-c2ccnc3[nH]nc(C)c23)cc1 | < 4.30 | 4.67 | < 4.30 | – | – | – | – | –
10 | Cc1n[nH]c2nccc(-c3ccc(NC(=S)Nc4cccc(C(F)(F)F)c4)cc3)c12 | 5.80 | – | 5.10 | 4.37 | – | – | – | –
11 | CCc1cccc(NC(=O)Nc2ccc(-c3ccnc4[nH]nc(C)c34)cc2)c1 | 7.66 | 8.41 | 5.92 | – | – | – | – | –
12 | Cc1n[nH]c2nccc(-c3ccc(NC(=O)Nc4cnc5ccccc5c4)cc3)c12 | 7.66 | 8.72 | 5.73 | – | 1.51 | 10.4 | 217 | 0.0833
13 | Cc1cc(N2CCN(C)CC2)ccc1NC(=O)Nc1ccc(-c2ccnc3[nH]nc(C)c23)cc1 | 5.96 | 5.65 | 5.17 | – | – | – | – | –
14 | Cc1n[nH]c2nccc(-c3ccc(NC(=O)NCCCCc4ccccc4)cc3)c12 | 6.87 | 8.21 | 4.96 | – | – | – | – | –
15 | Cc1n[nH]c2nccc(-c3ccc(NC(=O)NC(C)(C)C)cc3)c12 | 5.83 | 5.85 | 4.94 | – | – | – | – | –
16 | Cc1n[nH]c2nccc(-c3ccc(NC(=O)Nc4ccccc4N4CCOCC4)cc3)c12 | 5.39 | 5.19 | 4.43 | – | – | – | – | –
17 | Cc1ccccc1NC(=O)Nc1ccc(-c2ccnc3[nH]nc(C)c23)cc1 | 6.52 | 4.96 | 5.36 | – | – | – | – | –
18 | Cc1n[nH]c2nccc(-c3ccc(NC(=O)NCCc4ccccc4)cc3)c12 | 7.09 | 8.43 | – | – | – | – | – | –
19 | Cc1n[nH]c2nccc(-c3ccc(NC(=O)Nc4cccnc4)cc3)c12 | 6.50 | 7.85 | 5.51 | – | – | – | – | –
20 | Cc1ccc(F)c(NC(=O)Nc2ccc(-c3ccnc4[nH]nc(C)c34)cc2)c1 | 7.06 | – | 5.37 | < 4.30 | – | – | – | –

Row | Compound | pIC50 [1] | pIC50 [2] | pIC50 [3] | pIC50 [4] | GI50 [5] [µM] | GI50 [6] [nM] | GI50 [7] [nM] | GI50 [8] [µM]
21 | Cc1n[nH]c2nccc(-c3ccc(NC(=O)NCCCc4ccccc4)cc3)c12 | 7.62 | 8.77 | 5.41 | – | 2.05 | 10.4 | 1670 | 3.02
22 | Cc1ccc(N2CCN(C)CC2)c(NC(=O)Nc2ccc(-c3ccnc4[nH]nc(C)c34)cc2)c1 | 5.75 | 5.71 | 5.40 | – | – | – | – | –
23 | Cc1n[nH]c2nccc(-c3ccc(NC(=O)NC4CCCCC4)cc3)c12 | < 4.30 | < 4.30 | < 4.30 | – | – | – | – | –
24 | CCCCCNC(=O)Nc1ccc(-c2ccnc3[nH]nc(C)c23)cc1 | 6.79 | 8.46 | < 4.30 | – | – | – | – | –
25 | Cc1n[nH]c2nccc(-c3ccc(NC(=O)Nc4cccc(F)c4)cc3)c12 | 6.58 | 5.32 | 5.21 | – | – | – | – | –
26 | CCN(CC)c1cccc(NC(=O)Nc2ccc(-c3ccnc4[nH]nc(C)c34)cc2)c1 | 6.87 | 7.92 | 4.38 | – | – | – | – | –
27 | Cc1n[nH]c2nccc(-c3ccc(NC(=O)NCc4ccccn4)cc3)c12 | 6.33 | 7.11 | 5.39 | – | – | – | – | –
28 | CCCCCCNC(=O)Nc1ccc(-c2ccnc3[nH]nc(C)c23)cc1 | 7.57 | 8.85 | 4.98 | – | 3.18 | 10.4 | 1780 | 3.03
29 | Cc1ccc(F)c(NC(=O)Nc2ccc(C3CC(O)=Nc4[nH]nc(C)c43)cc2)c1 (centres undefined) | < 4.30 | – | < 4.30 | 4.47 | > 10 | 4250 | > 10000 | > 10
30 | Cc1n[nH]c2nccc(-c3ccc(NC(=O)NC4CC4)cc3)c12 | 5.95 | 6.26 | 5.34 | – | – | – | – | –
31 | Cc1n[nH]c2nccc(-c3ccc(NC(=O)NC4Cc5ccccc5C4)cc3)c12 | 7.08 | 8.06 | < 4.30 | – | – | – | – | –
32 | Cc1ccc(F)c(NC(=O)Nc2ccc(-c3cc(O)nc4[nH]nc(C)c34)cc2)c1 | 5.93 | – | 5.73 | 5.33 | > 10 | 204 | > 10000 | > 10
33 | Cc1n[nH]c2nccc(-c3ccc(NC(=O)NCc4ccco4)cc3)c12 | 6.41 | 7.29 | 5.46 | – | – | – | – | –
34 | Cc1n[nH]c2nccc(-c3ccc(NC(=O)Nc4cccc(C#N)c4)cc3)c12 | 4.67 | 6.70 | < 4.30 | – | – | – | – | –
35 | Cc1n[nH]c2nccc(-c3ccc(NC(=O)NCC(C)C)cc3)c12 | 5.95 | 6.49 | 5.06 | – | – | – | – | –
36 | Cc1n[nH]c2nccc(-c3ccc(NC(=O)NCc4ccccc4)cc3)c12 | < 4.30 | 4.34 | < 4.30 | – | – | – | – | –
37 | Cc1ccc(F)c(NC(=O)Nc2ccc(-c3cccc4[nH]nc(N)c34)cc2)c1 [LINIFANIB] | 7.82 | – | – | – | 0.104 | 10.4 | 37.1 | 0.0887
38 | Cc1n[nH]c2nccc(-c3ccc(NC(=O)NC4CCC4)cc3)c12 | 6.14 | 6.50 | 5.30 | – | – | – | – | –
39 | Cc1n[nH]c2nccc(-c3ccc(NC(=O)Nc4cccc(Cl)c4)cc3)c12 | 6.74 | 5.62 | 5.39 | – | – | – | – | –
40 | CCNC(=O)Nc1ccc(-c2ccnc3[nH]nc(C)c23)cc1 | < 4.30 | 4.41 | < 4.30 | – | – | – | – | –

Other lines, results leading:

Row | pIC50 [1] | pIC50 [2] | pIC50 [3] | pIC50 [4] | GI50 [5] [µM] | GI50 [6] [nM] | GI50 [7] [nM] | GI50 [8] [µM] | Compound
41 | 6.86 | – | 5.50 | < 4.30 | – | – | – | – | Cc1n[nH]c2nccc(-c3ccc(NC(=O)Nc4cccc(Br)c4)cc3)c12
42 | 6.40 | 7.70 | < 4.30 | – | – | – | – | – | Cc1n[nH]c2nccc(-c3ccc(NC(=O)Nc4ccccn4)cc3)c12
43 | 6.51 | 8.03 | 5.04 | – | – | – | – | – | Cc1n[nH]c2nccc(-c3ccc(NC(=O)Nc4ccc(N(C)C)cc4)cc3)c12
44 | 6.03 | 5.34 | 5.38 | – | – | – | – | – | Cc1n[nH]c2nccc(-c3ccc(NC(=O)Nc4ccccc4N4CCN(C)CC4)cc3)c12
45 | < 4.30 | – | < 4.30 | 4.74 | – | – | – | – | Cc1cccc(NC(=O)Nc2ccc(C3CC(O)=Nc4[nH]nc(C)c43)cc2)c1 (centres undefined)
46 | 6.39 | 6.92 | 5.62 | – | – | – | – | – | Cc1n[nH]c2nccc(-c3ccc(NC(=O)Nc4ccn[nH]4)cc3)c12
47 | 6.91 | 7.70 | < 4.30 | – | – | – | – | – | Cc1n[nH]c2nccc(-c3ccc(NC(=O)Nc4ccc5ccccc5c4)cc3)c12
48 | 7.19 | 5.74 | 5.25 | – | – | – | – | – | Cc1ccc(NC(=O)Nc2ccc(-c3ccnc4[nH]nc(C)c34)cc2)cc1
49 | 6.97 | – | 5.72 | < 4.30 | – | – | – | – | Cc1n[nH]c2nccc(-c3ccc(NC(=O)Nc4cccc(C(F)(F)F)c4)cc3)c12
50 | 7.01 | 8.44 | < 4.30 | – | – | – | – | – | Cc1n[nH]c2nccc(-c3ccc(NC(=O)Nc4cccc5ccccc45)cc3)c12
51 | 7.06 | 8.62 | 5.31 | – | 5 | 10.4 | 1840 | 1.07 | Cc1cccc(NC(=O)Nc2ccc(-c3ccnc4[nH]nc(CO)c34)cc2)c1
52 | 5.97 | – | 5.21 | 4.70 | – | – | – | – | Cc1n[nH]c2nccc(-c3ccc(NC(=S)Nc4cccc(Br)c4)cc3)c12
53 | 6.80 | 7.59 | 5.75 | – | – | – | – | – | Cc1n[nH]c2nccc(-c3ccc(NC(=O)NCc4cccs4)cc3)c12
54 | 6.90 | 8.14 | 5.43 | – | – | – | – | – | Cc1cc(NC(=O)Nc2ccc(-c3ccnc4[nH]nc(C)c34)cc2)ccc1N1CCN(C)CC1
55 | 6.67 | 7.72 | 5.21 | – | – | – | – | – | Cc1n[nH]c2nccc(-c3ccc(NC(=O)Nc4cccc(N5CCN(C)CC5)c4)cc3)c12
56 | 6.25 | – | 5.91 | 5.65 | – | – | – | – | Cc1cccc(NC(=O)Nc2ccc(-c3cc(O)nc4[nH]nc(C)c34)cc2)c1
57 | 4.72 | 6.40 | 4.58 | – | – | – | – | – | Cc1ccc(N2CCOCC2)c(NC(=O)Nc2ccc(-c3ccnc4[nH]nc(C)c34)cc2)c1
